The source of these data is paper PMC7011995, “Steroids interfere with human carbonic anhydrase activity by using alternative binding mechanisms” (Journal of Enzyme Inhibition and Medicinal Chemistry, 2018).

Structures are written as SMILES.

T2 sequence (P22748 19-284): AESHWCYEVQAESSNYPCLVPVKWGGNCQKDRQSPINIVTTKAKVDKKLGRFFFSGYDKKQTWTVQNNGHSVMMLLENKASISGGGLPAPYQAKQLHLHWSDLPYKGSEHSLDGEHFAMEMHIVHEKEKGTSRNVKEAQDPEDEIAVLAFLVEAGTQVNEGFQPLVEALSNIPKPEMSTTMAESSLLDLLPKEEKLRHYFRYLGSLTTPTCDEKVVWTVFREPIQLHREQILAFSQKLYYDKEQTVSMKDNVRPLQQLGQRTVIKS

For the first assay, the target named is T1, hCA I (Homo sapiens, UniProt P00915).
T1 construct: gene CA1; recombinant, obtained in-house; cytosolic
T1 sequence (P00915 2-261): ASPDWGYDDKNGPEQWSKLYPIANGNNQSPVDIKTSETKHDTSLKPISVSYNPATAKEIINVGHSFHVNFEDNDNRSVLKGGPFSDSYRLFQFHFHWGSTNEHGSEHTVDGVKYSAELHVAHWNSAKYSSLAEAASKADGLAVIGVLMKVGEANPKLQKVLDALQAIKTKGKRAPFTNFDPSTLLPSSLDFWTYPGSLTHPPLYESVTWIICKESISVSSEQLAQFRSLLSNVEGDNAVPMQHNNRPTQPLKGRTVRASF
The assay can be described thus: stopped-flow CO2 hydration assay, phenol red.
Settings: not given
Type of assay: biochemical. The text has this:
stopped-flow CO2 hydration assay, phenol red on hCA I
`C[C@]12CC[C@@H](O)C[C@@H]1CC[C@@H]1[C@@H]2CC[C@]2(C)C(=O)CC[C@@H]12` [compound 14, Androsterone]: the Ki is above 100 µM.

`C[C@]12CCC(=O)C[C@@H]1CC[C@@H]1[C@@H]2CC[C@]2(C)[C@@H](O)CC[C@@H]12` [compound 16, Androstanolone] displayed a Ki above 100 µM.

In turn, `C[C@]12CC[C@H]3[C@@H](CCC4=CC(=O)CC[C@@]43C)[C@@H]1CC[C@@H]2O` [compound 13, Testosterone] returned a Ki above 100 µM.

Still in this assay, the particulars now being: read-out: hCAI.
In the case of `CC(=O)[C@H]1CC[C@H]2[C@@H]3CCC4=CC(=O)CC[C@]4(C)[C@H]3CC[C@]12C` [compound 17, Progesterone], the Ki was above 100 µM.

As to `C[C@H](CCC(=O)O)[C@H]1CC[C@H]2[C@@H]3C(=O)C[C@@H]4CC(=O)CC[C@]4(C)[C@H]3CC(=O)[C@]12C` [compound 10, Dehydrocholic acid], the Ki was above 100 µM.

For the compound `C[C@]12CC[C@H](O)CC1=CC[C@@H]1[C@@H]2CC[C@]2(C)C(=O)CC[C@@H]12` [compound 15, Trans-dehydroandrosterone], the Ki is above 100 µM.

In the case of `C[C@H](CCC(=O)O)[C@H]1CC[C@H]2[C@@H]3C[C@H](O)[C@@H]4C[C@H](O)CC[C@]4(C)[C@H]3CC[C@]12C` [compound 8, Hyodeoxycholic acid], the Ki was above 100 µM.

For the compound `CC(C)CCC[C@@H](C)[C@H]1CC[C@H]2[C@@H]3CC=C4C[C@@H](O)CC[C@]4(C)[C@H]3CC[C@]12C` [compound 11, Cholesterol], the Ki was above 100 µM.

Turning to `C[C@H](CCC(=O)NCCS(=O)(=O)O)[C@H]1CC[C@H]2[C@@H]3[C@@H](O)C[C@@H]4C[C@H](O)CC[C@]4(C)[C@H]3CC[C@]12C` [compound 7, Tauroursodeoxycholic acid], the Ki was above 100 µM.

Take `C[C@H](CCC(=O)O)[C@H]1CC[C@H]2[C@@H]3[C@H](O)[C@H](O)[C@@H]4C[C@H](O)CC[C@]4(C)[C@H]3CC[C@]12C` [compound 9, Hyocholic acid]: the Ki worked out at 83.3 µM.

In the case of `C[C@]12CC[C@@H]3c4ccc(O)cc4CC[C@H]3[C@@H]1CC[C@H]2O` [compound 19, α-Estradiol], the Ki is 87.8 µM.

A further assay addresses T2, hCA IV (Homo sapiens, UniProt P22748).
T2 construct: gene CA4; recombinant, obtained in-house
In words: stopped-flow CO2 hydration assay, phenol red. Type of assay: biochemical.
Settings: not given
The text has this:
stopped-flow CO2 hydration assay, phenol red on hCA IV
On to `C[C@]12CC[C@@H](O)C[C@@H]1CC[C@@H]1[C@@H]2CC[C@]2(C)C(=O)CC[C@@H]12` [compound 14, Androsterone], for which the Ki was above 100 µM.

`C[C@]12CCC(=O)C[C@@H]1CC[C@@H]1[C@@H]2CC[C@]2(C)[C@@H](O)CC[C@@H]12` [compound 16, Androstanolone] yielded a Ki above 100 µM.

As to `C[C@]12CC[C@H]3[C@@H](CCC4=CC(=O)CC[C@@]43C)[C@@H]1CC[C@@H]2O` [compound 13, Testosterone], the Ki is above 100 µM.

Staying with this assay, now noted: read-out: hCA IV.
`C[C@H](CCC(=O)O)[C@H]1CC[C@H]2[C@@H]3[C@H](O)[C@H](O)[C@@H]4C[C@H](O)CC[C@]4(C)[C@H]3CC[C@]12C` [compound 9, Hyocholic acid]: the Ki is above 100 µM.

On to `C[C@]12CC[C@@H]3c4ccc(O)cc4CC[C@H]3[C@@H]1CC[C@H]2O` [compound 19, α-Estradiol], for which the Ki was above 100 µM.

Another assay concerns the target T3, hCA II (Homo sapiens, UniProt P00918).
T3 construct: gene CA2; recombinant, obtained in-house; cytosolic
In words: stopped-flow CO2 hydration assay, phenol red. Type of assay: biochemical.
Settings: not given
The text has this: stopped-flow CO2 hydration assay, phenol red on hCA II
As to `C[C@]12CC[C@@H](O)C[C@@H]1CC[C@@H]1[C@@H]2CC[C@]2(C)C(=O)CC[C@@H]12` [compound 14, Androsterone], the Ki was above 100 µM.

`C[C@]12CCC(=O)C[C@@H]1CC[C@@H]1[C@@H]2CC[C@]2(C)[C@@H](O)CC[C@@H]12` [compound 16, Androstanolone] gave a Ki above 100 µM.

In turn, `C[C@]12CC[C@H]3[C@@H](CCC4=CC(=O)CC[C@@]43C)[C@@H]1CC[C@@H]2O` [compound 13, Testosterone] yielded a Ki above 100 µM.

The same assay, now with this note: read-out: hCA II.
As for `C[C@H](CCC(=O)O)[C@H]1CC[C@H]2[C@@H]3C(=O)C[C@@H]4CC(=O)CC[C@]4(C)[C@H]3CC(=O)[C@]12C` [compound 10, Dehydrocholic acid], the Ki turned out to be 57.8 µM.

For the compound `C[C@H](CCC(=O)O)[C@H]1CC[C@H]2[C@@H]3C[C@H](O)[C@@H]4C[C@H](O)CC[C@]4(C)[C@H]3CC[C@]12C` [compound 8, Hyodeoxycholic acid], the Ki is 58.4 µM.

As for `C[C@H](CCC(=O)NCCS(=O)(=O)O)[C@H]1CC[C@H]2[C@@H]3[C@@H](O)C[C@@H]4C[C@H](O)CC[C@]4(C)[C@H]3CC[C@]12C` [compound 7, Tauroursodeoxycholic acid], the Ki is 82.9 µM.

Consider `C[C@H](CCC(=O)O)[C@H]1CC[C@H]2[C@@H]3[C@H](O)[C@H](O)[C@@H]4C[C@H](O)CC[C@]4(C)[C@H]3CC[C@]12C` [compound 9, Hyocholic acid], for which the Ki was determined as 38.9 µM.

Take `C[C@]12CC[C@@H]3c4ccc(O)cc4CC[C@H]3[C@@H]1CC[C@H]2O` [compound 19, α-Estradiol]: the Ki came out at 40.4 µM.

The target of a further assay is T4, hCA IX (Homo sapiens, UniProt Q16790).
T4 construct: gene CA9; recombinant, obtained in-house; tumor-associated transmembrane isoform
In words: stopped-flow CO2 hydration assay, phenol red. The format is biochemical.
Settings: not given
The text has this: stopped-flow CO2 hydration assay, phenol red on hCA IX
`C[C@]12CC[C@@H](O)C[C@@H]1CC[C@@H]1[C@@H]2CC[C@]2(C)C(=O)CC[C@@H]12` [compound 14, Androsterone] registered a Ki above 100 µM.

As to `C[C@]12CCC(=O)C[C@@H]1CC[C@@H]1[C@@H]2CC[C@]2(C)[C@@H](O)CC[C@@H]12` [compound 16, Androstanolone], the Ki was above 100 µM.

On to `C[C@]12CC[C@H]3[C@@H](CCC4=CC(=O)CC[C@@]43C)[C@@H]1CC[C@@H]2O` [compound 13, Testosterone], for which the Ki is above 100 µM.

Still in this assay, the particulars now being: read-out: hCA IX.
On to `C[C@H](CCC(=O)O)[C@H]1CC[C@H]2[C@@H]3C(=O)C[C@@H]4CC(=O)CC[C@]4(C)[C@H]3CC(=O)[C@]12C` [compound 10, Dehydrocholic acid], for which the Ki was 53.9 µM.

Turning to `C[C@H](CCC(=O)O)[C@H]1CC[C@H]2[C@@H]3C[C@H](O)[C@@H]4C[C@H](O)CC[C@]4(C)[C@H]3CC[C@]12C` [compound 8, Hyodeoxycholic acid], the Ki was determined as 67.7 µM.

As to `C[C@H](CCC(=O)NCCS(=O)(=O)O)[C@H]1CC[C@H]2[C@@H]3[C@@H](O)C[C@@H]4C[C@H](O)CC[C@]4(C)[C@H]3CC[C@]12C` [compound 7, Tauroursodeoxycholic acid], the Ki stood at 42.9 µM.

Take `C[C@H](CCC(=O)O)[C@H]1CC[C@H]2[C@@H]3[C@H](O)[C@H](O)[C@@H]4C[C@H](O)CC[C@]4(C)[C@H]3CC[C@]12C` [compound 9, Hyocholic acid]: the Ki amounted to 71.9 µM.

As to `C[C@]12CC[C@@H]3c4ccc(O)cc4CC[C@H]3[C@@H]1CC[C@H]2O` [compound 19, α-Estradiol], the Ki amounted to 49.6 µM.

Another assay concerns the target T2, hCA IV. In words: stopped-flow CO2 hydration assay, phenol red. Type of assay: biochemical. Conditions: read-out: hCAI.
Consider `CC(=O)[C@H]1CC[C@H]2[C@@H]3CCC4=CC(=O)CC[C@]4(C)[C@H]3CC[C@]12C` [compound 17, Progesterone], for which the Ki was above 100 µM.

Take `C[C@H](CCC(=O)O)[C@H]1CC[C@H]2[C@@H]3C(=O)C[C@@H]4CC(=O)CC[C@]4(C)[C@H]3CC(=O)[C@]12C` [compound 10, Dehydrocholic acid]: the Ki is above 100 µM.

On to `C[C@]12CC[C@H](O)CC1=CC[C@@H]1[C@@H]2CC[C@]2(C)C(=O)CC[C@@H]12` [compound 15, Trans-dehydroandrosterone], for which the Ki was above 100 µM.

Consider `C[C@H](CCC(=O)O)[C@H]1CC[C@H]2[C@@H]3C[C@H](O)[C@@H]4C[C@H](O)CC[C@]4(C)[C@H]3CC[C@]12C` [compound 8, Hyodeoxycholic acid], for which the Ki is above 100 µM.

Take `CC(C)CCC[C@@H](C)[C@H]1CC[C@H]2[C@@H]3CC=C4C[C@@H](O)CC[C@]4(C)[C@H]3CC[C@]12C` [compound 11, Cholesterol]: the Ki was above 100 µM.

As to `C[C@H](CCC(=O)NCCS(=O)(=O)O)[C@H]1CC[C@H]2[C@@H]3[C@@H](O)C[C@@H]4C[C@H](O)CC[C@]4(C)[C@H]3CC[C@]12C` [compound 7, Tauroursodeoxycholic acid], the Ki is above 100 µM.

For a further assay, the target named is T3, hCA II. The assay can be described thus: stopped-flow CO2 hydration assay, phenol red. The following applies: read-out: hCAI. Type of assay: biochemical.
In the case of `CC(=O)[C@H]1CC[C@H]2[C@@H]3CCC4=CC(=O)CC[C@]4(C)[C@H]3CC[C@]12C` [compound 17, Progesterone], the Ki is above 100 µM.

As for `C[C@]12CC[C@H](O)CC1=CC[C@@H]1[C@@H]2CC[C@]2(C)C(=O)CC[C@@H]12` [compound 15, Trans-dehydroandrosterone], the Ki was above 100 µM.

For `CC(C)CCC[C@@H](C)[C@H]1CC[C@H]2[C@@H]3CC=C4C[C@@H](O)CC[C@]4(C)[C@H]3CC[C@]12C` [compound 11, Cholesterol], the Ki was above 100 µM.

A further assay concerns the target T4, hCA IX. The assay can be described thus: stopped-flow CO2 hydration assay, phenol red. The following applies: read-out: hCAI. Type of assay: biochemical.
For the compound `CC(=O)[C@H]1CC[C@H]2[C@@H]3CCC4=CC(=O)CC[C@]4(C)[C@H]3CC[C@]12C` [compound 17, Progesterone], the Ki is above 100 µM.

Consider `C[C@]12CC[C@H](O)CC1=CC[C@@H]1[C@@H]2CC[C@]2(C)C(=O)CC[C@@H]12` [compound 15, Trans-dehydroandrosterone], for which the Ki was above 100 µM.

Consider `CC(C)CCC[C@@H](C)[C@H]1CC[C@H]2[C@@H]3CC=C4C[C@@H](O)CC[C@]4(C)[C@H]3CC[C@]12C` [compound 11, Cholesterol], for which the Ki is above 100 µM.
